Reference: ChEMBL document CHEMBL5154938, “A Small-Molecule Oral Agonist of the Human Glucagon-like Peptide-1 Receptor” (J Med Chem, 2022)
One block for each compound: values may come before it. Activity calls are given as the source filed them. No cut-off for these calls is given here.

Legend:
[1] = molecular target: T1, Glucagon-like peptide 1 receptor (Homo sapiens, UniProt P43220)
[2] = molecular target: T1, Glucagon-like peptide 1 receptor; remark: listed apart in the source
[3] = molecular target: T1, Glucagon-like peptide 1 receptor; remark: listed apart in the source
[4] = molecular target: T1, Glucagon-like peptide 1 receptor; remark: listed apart in the source
[5] = molecular target: T1, Glucagon-like peptide 1 receptor; test: biochemical
[6] = Lipophilicity, logD of compound at pH 7.4 by RP-HPLC analysis; type: physicochemical; conditions: buffer
[7] = molecular target: Voltage-gated inwardly rectifying potassium channel KCNH2 (Homo sapiens, UniProt Q12809); test: Inhibition of hERG ion channel by patch-clamp method; type: toxicity
Voltage-gated inwardly rectifying potassium channel KCNH2, sequence (Q12809 whole entry): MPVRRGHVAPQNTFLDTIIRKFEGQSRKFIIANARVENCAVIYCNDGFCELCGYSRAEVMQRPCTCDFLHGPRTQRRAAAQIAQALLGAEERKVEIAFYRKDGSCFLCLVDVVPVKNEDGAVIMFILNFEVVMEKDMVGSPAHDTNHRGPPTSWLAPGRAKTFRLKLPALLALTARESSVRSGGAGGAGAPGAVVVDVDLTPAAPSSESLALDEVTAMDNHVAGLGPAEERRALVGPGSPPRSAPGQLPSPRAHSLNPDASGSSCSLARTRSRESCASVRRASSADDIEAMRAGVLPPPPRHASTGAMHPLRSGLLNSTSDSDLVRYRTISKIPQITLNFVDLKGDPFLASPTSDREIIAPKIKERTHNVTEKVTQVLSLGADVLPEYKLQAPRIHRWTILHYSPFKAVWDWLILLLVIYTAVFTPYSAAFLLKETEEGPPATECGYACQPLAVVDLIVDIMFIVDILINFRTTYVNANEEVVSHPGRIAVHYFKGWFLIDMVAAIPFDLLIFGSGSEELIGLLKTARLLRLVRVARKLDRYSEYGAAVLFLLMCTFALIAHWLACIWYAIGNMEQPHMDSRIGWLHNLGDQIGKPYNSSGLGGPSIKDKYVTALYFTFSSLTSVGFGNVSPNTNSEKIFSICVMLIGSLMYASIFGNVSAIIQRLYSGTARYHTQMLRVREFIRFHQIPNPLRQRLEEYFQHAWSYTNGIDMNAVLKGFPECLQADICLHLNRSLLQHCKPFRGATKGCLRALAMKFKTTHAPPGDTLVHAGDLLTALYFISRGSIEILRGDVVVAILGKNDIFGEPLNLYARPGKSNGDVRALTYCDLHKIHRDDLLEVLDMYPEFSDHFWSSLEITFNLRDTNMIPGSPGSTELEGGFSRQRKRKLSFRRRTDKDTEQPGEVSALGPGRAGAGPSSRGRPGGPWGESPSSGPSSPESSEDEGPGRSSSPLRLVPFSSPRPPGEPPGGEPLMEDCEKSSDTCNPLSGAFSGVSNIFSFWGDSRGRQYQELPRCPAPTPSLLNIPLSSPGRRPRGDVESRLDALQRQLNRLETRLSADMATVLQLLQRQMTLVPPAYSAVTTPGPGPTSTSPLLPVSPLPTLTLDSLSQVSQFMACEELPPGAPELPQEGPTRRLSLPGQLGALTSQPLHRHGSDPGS

[8] = molecular target: T1, Glucagon-like peptide 1 receptor; remark: listed apart in the source
in vitro = conditions: human, hepatocytes
[9] = molecular target: T1, Glucagon-like peptide 1 receptor; test: Agonist activity at human GLP-1R expressed in CHO-K1 cells assessed as cAMP accumulation by measuring maximum efficacy at 20 uM incubated for 30 mins in presence of BETP by BETP sensitized time-resolved fluorescence assay relative to control; type: functional, cell-based; conditions: filed as agonist
[10] = molecular target: T1, Glucagon-like peptide 1 receptor; test: Agonist activity at human GLP-1R expressed in PathHunter CHO-K1 GLP1R beta-arrestin-2 cell assessed as induction of beta-arrestin 2 recruitment incubated for 90 mins in presence of BETP by PathHunter assay; type: functional, cell-based
[11] = molecular target: T1, Glucagon-like peptide 1 receptor; test: Agonist activity at human GLP-1R expressed in PathHunter CHO-K1 GLP1R beta-arrestin-2 cells assessed as induction of beta-arrestin 2 recruitment by measuring maximum efficacy incubated for 90 mins in presence of BETP by PathHunter assay relative to control; type: functional, cell-based
[12] = Lipophilicity, logD of compound at pH 7.4 by shake-flash method; type: physicochemical; conditions: buffer
[13] = molecular target: T1, Glucagon-like peptide 1 receptor; remark: listed apart in the source
[14] = Cmax in Wistar Han rat at 100 mg/kg, po measured upto 24 hrs by LC-MS/MS analysis; type: ADME, organism-based; design: time < 24 hrs, dose 100 mg/kg, route po; conditions: in vivo
[15] = Metabolic stability in human liver microsomes assessed as intrinsic clearance in the presence of NADPH by HPLC-MS/MS analysis; type: ADME, Microsome
[16] = Activation of rabbit GLP-1R expressed in CHO cells assessed as increase in cAMP accumulation; type: cell-based; conditions: Oryctolagus cuniculus
[17] = Cmax in Wistar Han rat at 5 mg/kg, po measured upto 24 hrs by LC-MS/MS analysis; type: ADME, organism-based; design: dose 5 mg/kg, time < 24 hrs, route po; conditions: in vivo
CHO = test: Activation of mouse GLP-1R S33W mutant expressed in CHO cells assessed as increase in cAMP accumulation; type: cell-based; conditions: filed as activator
[18] = Cmax in cynomologus monkey at 5 mg/kg, po measured upto 24 hrs by LC-MS/MS analysis; type: ADME, organism-based, Macaca fascicularis; design: time < 24 hrs, dose 5 mg/kg, route po; conditions: cynomolgus monkey, in vivo
[19] = Cmax in cynomologus monkey at 100 mg/kg, po measured upto 24 hrs by LC-MS/MS analysis; type: ADME, organism-based, Macaca fascicularis; design: time < 24 hrs, dose 100 mg/kg, route po; conditions: cynomolgus monkey, in vivo
[20] = AUC(0 to infinity) in cynomologus monkey at 1 mg/kg, iv measured upto 24 hrs by LC-MS/MS analysis; type: ADME, organism-based, Macaca fascicularis; design: dose 1 mg/kg, time < 24 hrs, route iv; conditions: cynomolgus monkey, in vivo
[21] = AUC(0 to infinity) in cynomologus monkey at 5 mg/kg, po measured upto 24 hrs by LC-MS/MS analysis; type: ADME, organism-based, Macaca fascicularis; design: time < 24 hrs, dose 5 mg/kg, route po; conditions: cynomolgus monkey, in vivo
[22] = AUC(0 to infinity) in cynomologus monkey at 100 mg/kg, po measured upto 24 hrs by LC-MS/MS analysis; type: ADME, organism-based, Macaca fascicularis; design: dose 100 mg/kg, time < 24 hrs, route po; conditions: cynomolgus monkey, in vivo
[23] = AUC (0 to infinity) in Wistar Han rat at 1 mg/kg, iv measured upto 24 hrs by LC-MS/MS analysis; type: ADME, organism-based; design: time < 24 hrs, dose 1 mg/kg, route iv; conditions: in vivo
[24] = AUC (0 to infinity) in Wistar Han rat at 5 mg/kg, po measured upto 24 hrs by LC-MS/MS analysis; type: ADME, organism-based; design: dose 5 mg/kg, time < 24 hrs, route po; conditions: in vivo
[25] = AUC (0 to infinity) in Wistar Han rat at 100 mg/kg, po measured upto 24 hrs by LC-MS/MS analysis; type: ADME, organism-based; design: dose 100 mg/kg, time < 24 hrs, route po; conditions: in vivo
[26] = Volume of distribution at steady state in Wistar Han rat at 1 mg/kg, iv measured upto 24 hrs by LC-MS/MS analysis; type: ADME, organism-based; conditions: in vivo
[27] = Volume of distribution at steady state in cynomologus monkey at 1 mg/kg, iv measured upto 24 hrs by LC-MS/MS analysis; type: ADME, organism-based, Macaca fascicularis; conditions: cynomolgus monkey, in vivo
[28] = Oral bioavailability in cynomologus monkey at 5 mg/kg measured upto 24 hrs by LC-MS/MS analysis; type: ADME, organism-based, Macaca fascicularis; conditions: cynomolgus monkey, in vivo
[29] = Oral bioavailability in cynomologus monkey at 100 mg/kg measured upto 24 hrs by LC-MS/MS analysis; type: ADME, organism-based, Macaca fascicularis; conditions: cynomolgus monkey, in vivo
[30] = Oral bioavailability in Wistar Han rat at 5 mg/kg measured upto 24 hrs by LC-MS/MS analysis; type: ADME, organism-based; conditions: in vivo
[31] = Oral bioavailability in Wistar Han rat at 100 mg/kg measured upto 24 hrs by LC-MS/MS analysis; type: ADME, organism-based; conditions: in vivo
Macaca fascicularis [32] = test: Induction of insulin secretion in cynomologus monkey assessed as induction of glucose-induced insulin secretion at 1.8 mg, iv dosed once daily by IVGTT; type: functional, organism-based; conditions: DDE = dose-dependent effect
Macaca fascicularis [33] = test: Induction of insulin secretion in cynomologus monkey assessed as glucose disappearance at 1.8 mg, iv dosed once daily by IVGTT assay; type: functional, organism-based
Cynomolgus monkey = test: Reduction in food intake in cynomologus monkey at 2.9 mg/kg, po administered once daily for 2 days relative to control; type: functional, organism-based; conditions: Macaca fascicularis, time 2.0 day
[34] = molecular target: T1, Glucagon-like peptide 1 receptor; test: Agonist activity at FAP-tagged human GLP-1R expressed in HEK293 cells assessed as receptor internalization measured after 30 mins by nuclear staining based confocal microscopic analysis; type: functional, cell-based; conditions: filed as agonist

T1 sequence (P43220 whole entry): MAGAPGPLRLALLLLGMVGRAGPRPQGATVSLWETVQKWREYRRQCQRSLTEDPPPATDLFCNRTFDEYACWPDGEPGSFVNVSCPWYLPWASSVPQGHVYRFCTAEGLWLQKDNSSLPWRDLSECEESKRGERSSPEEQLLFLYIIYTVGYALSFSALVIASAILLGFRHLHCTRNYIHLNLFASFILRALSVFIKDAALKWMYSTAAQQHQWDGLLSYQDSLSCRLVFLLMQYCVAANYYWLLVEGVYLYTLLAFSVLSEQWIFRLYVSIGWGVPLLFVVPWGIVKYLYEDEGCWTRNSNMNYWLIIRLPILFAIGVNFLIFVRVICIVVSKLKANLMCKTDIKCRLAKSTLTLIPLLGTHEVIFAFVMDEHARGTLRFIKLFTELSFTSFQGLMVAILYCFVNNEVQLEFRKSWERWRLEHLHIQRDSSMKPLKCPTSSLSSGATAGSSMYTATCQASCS

EC50 [1]: 0.75 nM
EC50 [2]: 8.6 nM
EC50 [3]: 250 nM
EC50 [4]: 610 nM
Ki [5]: 51 nM
Compound: CCn1cncc1Cn1c(CN2CCC(c3cccc(OCc4ccc(F)cc4F)n3)CC2)nc2ccc(C(=O)O)cc21

Compound: Cn1c(CN2CCC(c3nc(OCc4ccc(Cl)cc4F)ncc3F)CC2)nc2ccccc21
logD [6]: 5.6
IC50 [7]: 5.4 µM
EC50 [8]: > 9900 nM
EC50 [1]: > 20000 nM
EC50 [2]: > 20000 nM
hepatocyte CLint (in vitro): 48 µL/min/1e6 cells

EC50 [10]: 1500 nM
Emax [11]: 23%
logD [12]: 2.3
EC50 [8]: 44 nM
EC50 [1]: 4600 nM
EC50 [2]: > 20000 nM
EC50 [13]: > 30 µM
hepatocyte CLint (in vitro): 37 µL/min/1e6 cells
Compound: Cn1c(CN2CCC(c3cccc(OCc4ccc(Cl)cc4F)n3)CC2)nc2nccc(NCC(=O)O)c21
Emax [9]: 90%
IC50 [7]: > 10 µM

EC50 [10]: 2800 nM
Emax ([11]; filed as agonist): 99%
logD [12]: 2
EC50 [8]: 6.7 nM
EC50 [1]: 95 nM
EC50 [2]: 2100 nM
EC50 [13]: > 30 µM
hepatocyte CLint (in vitro): 31 µL/min/1e6 cells
Compound: Cn1c(CN2CCC(c3cccc(OCc4ccc(Cl)cc4F)n3)CC2)nc2ccc(C(=O)O)nc21
Emax [9]: 84%
IC50 [7]: > 100 µM

EC50 [10]: 9600 nM
Emax ([11]; filed as agonist): 100%
logD [6]: 5.7
EC50 [8]: 77 nM
EC50 [1]: 2600 nM
EC50 [2]: > 20000 nM
EC50 [13]: > 30 µM
hepatocyte CLint (in vitro): 55 µL/min/1e6 cells
Compound: Cn1c(CN2CCC(c3cccc(OCc4ccc(Cl)cc4F)n3)CC2)nc2ccncc21
Emax [9]: 86%
IC50 [7]: 5.6 µM

Compound: N#Cc1ccc(COc2cccc(C3CCN(Cc4nc5ccc(C(=O)O)cc5n4C[C@@H]4CCO4)CC3)n2)c(F)c1 [DANUGLIPRON]
Cmax [14]: 2820 ng/mL
Emax [9]: 110%
logD [12]: 1.8
CLH [15]: < 10 µL/min
IC50 [7]: 4.3 µM
EC50 [16]: > 20 µM
Cmax [17]: 141 ng/mL
Activity (CHO): Active
Cmax [18]: 68.7 ng/mL
Cmax [19]: 1150 ng/mL
AUC [20]: 1240 ng·h/mL
AUC [21]: 303 ng·h/mL
AUC [22]: 11000 ng·h/mL
AUC [23]: 296 ng·h/mL
AUC [24]: 168 ng·h/mL
AUC [25]: 11900 ng·h/mL
Vdss [26]: 0.86 L/kg
Vdss [27]: 0.266 L/kg
bioavailability [28]: 5%
bioavailability [29]: 9%
bioavailability [30]: 11%
bioavailability [31]: 39%
Activity (Macaca fascicularis [32]): Dde
Activity (Macaca fascicularis [33]): Active
Activity (Cynomolgus monkey): Active
Activity [34]: Active
hepatocyte CLint (in vitro): 6.9 µL/min/1e6 cells
